Data on one compound can be found in patent US8658649B2, “Kinase inhibitor” (Sanofi, priority 2006, dated 2014).

Experiment in all cases: Viability assay of liquid tumor cell lines (MTS)
Assay type in all cases: cell-based

The subject of one assay is Nalm-6. Conditions: Nalm-6 (B-ALL), N = 4. Here is the method:
(§1) This method is to determine the viability of a liquid tumor cell line following treatment with a test compound. Tumor cells are maintained in suspension at log phase growth. On the day of use, cells are resuspended to a density of 0.05 to 0.1 million/ml and cells are incubated in 96 well plate with the test compounds for 96 hours. Viability of cells was measured by incubating cells with Promega's MTS reagent. The viability of the cell is proportional to the change in absorbance at 490 nm. By comparing the absorbance between control and compound-treated cells, the impact of the test compounds on the cell viability is determined as a percent of the control cell viability.
(§2) Harvest cells in complete RPMI from log-phase cultures at densities of approximately 0.3-0.7 million/ml. Count cells and adjust to 0.1 million/ml in phenol red free cRPMI (For fast growing cells with doubling time of equal or less than 24 hours, e.g. K562, use 0.05 million/ml instead to avoid over-growing).
(§3) Transfer triplicates of 100 μl of cells to the wells of 96-well clear plates for a total of 10000 cells/well. Note that each well already contains 10 μl of 10× concentrated test compound prepared as above.
(§4) Incubate cells for 72-96 hours at 37° C. in a tissue culture incubator containing 5% CO2.
(§5) 1. Thaw the Promega's MTS reagent and add 20 ul to each well with a repeat pipetor.
(§6) 4. Incubate at 370 C until the absorbance at 490 nm for the control cells is >1.5.
(§7) 5. Calculate the averaged compound-treated cell data as a percent of the averaged control cell data as follows: (Compound-treated value/control value)*100=% of control value Results: […]

The next assay concerns Jurkat. The following applies: Jurkat (T-ALL), N = 4; for IC50: MTS assay. As for the experimental part: as §1, §2, §3, §4, §5, §6, §7
On the technique in general: Formazan colour is commonly taken as a measure of viable cells.

The test system of a further assay is HL-60. The following applies: HL-60 (AML), N = 4. As for the experimental part:
as §1, §2, §3, §4, §5, §6, §7

The next assay has as its system JVM-2. The following applies: JVM-2 (B-CLL), N = 4, listed as A003397769, 10 µM. Here is the method: as §1, §2, §3, §4, §5, §6, §7
The next assay has as its system Jurl-MK1. The following applies: Jurl-MK1 (CML), N = 4. As for the experimental part:
as §1, §2, §3, §4, §5, §6, §7

In another assay the test system is RPMI8226. The following applies: RPMI8226 (MM), N = 4. As for the experimental part:
as §1, §2, §3, §4, §5, §6, §7

The subject of a further assay is Jeko-1. Conditions: Jeko-1 (MCL), N = 4. Here is the method: as §1, §2, §3, §4, §5, §6, §7

The IC50 is the concentration needed to halve the response being measured. As a reminder, the % Inhibition is the percentage by which the read-out fell short of the control.

“And” between values parts separate entries of the source, which are not always exact repeats. Equal entries are not always repeated. A value given as a limit tells only on which side of the number the result lay.

With `CCc1c(-c2ccc(C(C)(C)O)cc2)[nH]c2nccnc12` [compound of Formula I, 2-[4-(7-Ethyl-5H-pyrrolo[2,3-b]pyrazin-6-yl)-phenyl]-propan-2-ol], the IC50 in the assay on Nalm-6 (Homo sapiens, MTS assay) is 5.5 µM; with Jurkat (Homo sapiens, Jurkat), 6.8 µM; with Jurkat (listed as A003397769), over 10 µM; with RPMI8226 (Homo sapiens, RPMI-8226, MTS assay), over 10 µM; in the assay with Jeko-1 (Homo sapiens, MTS assay), 3.1 µM. The “% Inhibition at max. conc. (10 uM)” value in the assay with Nalm-6 (10 uM) is 84%; in the assay on Jurkat (10 uM), 43%; with HL-60, 35%; in the assay on JVM-2, 60% and 59%; in the assay with Jurl-MK1, 28%; with RPMI8226 (10 uM), 36%. Further, the “% Inhibition at max. conc. (10 uM)” value in the assay with Jeko-1 (10 uM) was found to be 97%.
